Source: PMC11939996 (Biomolecules, 2025)

How the values were obtained:
[1] = system: Aβ40 fibrillation; assay: Transmission electron microscopy of Aβ40 fibrils; parameters: species or system human; details: 20 μM Aβ40 alone or with 4 μM S100A8 or S100A9, after ThT assay (30 °C, pH 7.4)
Experimental: A 300-mesh copper grid coated with a 0.2% formvar film was placed onto a 10 µL drop of the sample. After allowing the sample (after the ThT fluorescence assay) to adsorb for 10 min, the grid was negatively stained for 2 min using a 1% (w/v) aqueous solution of uranyl acetate. Excess staining solution was removed with filter paper, followed by a 1 min rinse in deionized water. The samples were examined using a JEM-1400Plus (HC) transmission electron microscope (JEOL, Ltd., Tokyo, Japan) operated at 80 keV.

[2] = biological target: Toll-like receptor 4 (Homo sapiens) (UniProt O00206); details: cited from earlier work
Sequence of Toll-like receptor 4 (Homo sapiens) (O00206 24-839): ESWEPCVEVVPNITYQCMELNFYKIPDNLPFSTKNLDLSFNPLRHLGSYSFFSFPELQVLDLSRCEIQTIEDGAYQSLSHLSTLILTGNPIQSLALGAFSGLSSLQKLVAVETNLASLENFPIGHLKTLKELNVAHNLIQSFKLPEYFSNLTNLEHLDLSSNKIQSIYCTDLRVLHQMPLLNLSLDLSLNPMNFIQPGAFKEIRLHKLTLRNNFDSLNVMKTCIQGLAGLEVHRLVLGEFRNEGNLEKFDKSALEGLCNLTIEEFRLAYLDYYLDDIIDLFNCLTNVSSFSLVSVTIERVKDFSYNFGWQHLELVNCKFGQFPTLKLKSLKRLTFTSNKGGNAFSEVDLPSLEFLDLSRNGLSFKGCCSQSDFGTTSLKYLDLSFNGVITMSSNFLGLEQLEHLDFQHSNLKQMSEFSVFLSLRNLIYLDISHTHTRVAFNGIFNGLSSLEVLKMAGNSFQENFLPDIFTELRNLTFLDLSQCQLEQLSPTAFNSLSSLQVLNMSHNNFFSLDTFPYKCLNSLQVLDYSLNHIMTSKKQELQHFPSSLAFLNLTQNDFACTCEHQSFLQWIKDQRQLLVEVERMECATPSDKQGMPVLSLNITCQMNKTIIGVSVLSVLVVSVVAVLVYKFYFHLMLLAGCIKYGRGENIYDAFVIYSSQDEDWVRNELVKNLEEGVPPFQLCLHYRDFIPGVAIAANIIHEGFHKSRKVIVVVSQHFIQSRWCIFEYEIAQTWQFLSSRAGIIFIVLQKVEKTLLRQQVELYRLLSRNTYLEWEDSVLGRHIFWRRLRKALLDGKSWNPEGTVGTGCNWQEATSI

[3] = system: monomeric Aβ42; assay: Bio-layer interferometry, analyte binding to immobilized monomeric Aβ42; parameters: species or system human; details: for ka × 10^−2: association, bivalent analyte model, number is ka multiplied by 10^−2, 25 °C, pH 7.4, 2.5 mM CaCl2, mean ± SD, n = 3–4
Experimental: (§1) Next, 96-well microplates with analyte solutions were kept at 25 °C and shaken at 1000 rpm. The Aβ samples were pretreated with neat TFA, followed by dissolution in DMSO as described in ref. [61, 66]. […] The rest of the activated amine groups on the sensor were blocked by 1 M ethanolamine solution. […] The sensor surface was regenerated by the passage of 0.5% SDS water solution for 30 s.
(§2) The direct interaction of S100 proteins with monomeric Aβ was studied by biolayer interferometry in the buffer conditions mimicking the physiological conditions (20 mM Tris-HCl, 140 mM NaCl, 4.9 mM KCl, 2.5 mM CaCl2, 1 mM MgCl2, pH 7.4).
(§3) Since the S100 proteins are predominantly dimeric, their BLI sensograms were described within the bivalent analyte model (1), taking into account that the dimer concentration is half of the monomer concentration.

[4] = system: HSA–Aβ40 interaction; assay: BLI competition: HSA interaction with monomeric Aβ40 in presence of S100A8/S100A9; type: binding, human; details: 67 µM HSA with 12 µM S100A8 or 7 µM S100A9; 25 °C, pH 7.4, 2.5 mM CaCl2
Experimental: (§4) Next, 96-well microplates with analyte solutions were kept at 25 °C and shaken at 1000 rpm. The Aβ samples were pretreated with neat TFA, followed by dissolution in DMSO as described in ref. [61, 66]. The pretreated ligand (5 μg/mL Aβ40/Aβ42 in 10 mM sodium acetate, pH 4.5 buffer) was immobilized onto Octet® AR2G biosensor (Sartorius AG, Göttingen, Germany) by amine coupling using EDAC/sulfo-NHS to achieve the loading level of 3.5 nm. The rest of the activated amine groups on the sensor were blocked by 1 M ethanolamine solution. The noncovalently bound ligand molecules were washed off the sensor with a 0.5% SDS water solution, followed by passage of the assay buffer (20 mM Tris-HCl, 140 mM NaCl, 4.9 mM KCl, 2.5 mM CaCl2, 1 mM MgCl2, pH 7.4), resulting in the loading level of 1.5 nm. […] The sensor surface was regenerated by the passage of 0.5% SDS water solution for 30 s.

[5] = system: HSA–Aβ42 interaction; assay: BLI competition: HSA interaction with monomeric Aβ42 in presence of S100A8/S100A9; type: binding, human; details: 67 µM HSA with 12 µM S100A8 or 7 µM S100A9; 25 °C, pH 7.4, 2.5 mM CaCl2
Experimental: as §4

[6] = system: Aβ40/Aβ42; assay: Chemical cross-linking with glutaraldehyde, SDS-PAGE; type: binding, human; details: faint band; 0.02% glutaraldehyde, 37 °C, 1 h, 25–75 μM S100A8, 20 μM Aβ40/Aβ42, pH 7.4
Experimental: The protein solution was incubated at 25 °C for 30 min prior to the cross-linking.

[7] = biological target: Toll-like receptor 4; details: in the presence of Ca^2+ and Zn^2+; cited from earlier work
[8] = biological target: RAGE V domain (Homo sapiens) (UniProt Q15109); details: cited from earlier work
Sequence of RAGE V domain (Homo sapiens) (Q15109 23-116): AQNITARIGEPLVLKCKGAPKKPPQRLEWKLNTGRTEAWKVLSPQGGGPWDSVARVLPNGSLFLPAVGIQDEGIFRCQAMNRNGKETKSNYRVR

[9] = system: monomeric Aβ40; assay: Bio-layer interferometry, analyte binding to immobilized monomeric Aβ40; parameters: species or system human; details: association; bivalent analyte model; number is ka multiplied by 10^−2; 25 °C, pH 7.4, 2.5 mM CaCl2; mean ± SD, n = 3–4
Experimental: as §1, §2, §3

[10] = biological target: RAGE V domain; details: cited from earlier work
[11] = system: Aβ40; details: cited from earlier work
Source text: Another component colocalized with senile plaques and associated with AD are specific members of the S100 protein family (reviewed in ref. [36]). The S100 family contains over two dozen small (9–13 kDa) multifunctional Ca^2+-binding proteins of the EF-hand superfamily, defined by the presence of the EF-hand motif, which coordinates a calcium ion through a loop located between two α-helices. Some S100 proteins affect cognitive processes, neuronal development and maintenance, APP processing, Aβ levels, the formation of amyloid plaques, post-translational modif ...

Sequence of S100A9 (P06702 whole entry): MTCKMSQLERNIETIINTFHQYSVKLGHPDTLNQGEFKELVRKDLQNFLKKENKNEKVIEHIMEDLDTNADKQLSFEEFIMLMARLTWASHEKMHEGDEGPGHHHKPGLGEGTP

Substance: Aβ40: Recombinant human amyloid-β peptide, 40 residues, prepared in E. coli
- fibril morphology by TEM [1]: dense clusters of the intertwined mature fibrils reaching microns in length

Substance: S100A8 (from UniProt P05109)
- Kd [2]: 1000 nM

Substance: S100A8: Recombinant human S100A8 prepared in E. coli; pro-inflammatory EF-hand Ca2+-binding protein
- accelerated association with Aβ42 versus Aβ40 ([3]; Aβ42 vs Aβ40): 1.5 fold
- slower dissociation from Aβ42 versus Aβ40 ([3]; Aβ42 vs Aβ40): 2.4 fold
- ka × 10^−2 [3]: 3.4 ± 0.9 M^−1s^−1
- maximal BLI signal of HSA interaction with Aβ40 [4]: marked decline in the maximal BLI signal
- maximal BLI signal of HSA interaction with Aβ42 [5]: marked decline in the maximal BLI signal
- band of cross-linked complex of S100A8 and Aβ monomers [6]: about 15 kDa
- Kd [7]: 1000 nM

Substance: S100A9 (from UniProt P06702)
- Kd [8]: 5500 nM

Substance: S100A9: Recombinant human S100A9 prepared in E. coli; pro-inflammatory EF-hand Ca2+-binding protein
- ka × 10^−2 [9]: 2.6 ± 1.0 M^−1s^−1
- ka × 10^−2 [3]: 4.5 ± 1.3 M^−1s^−1
- maximal BLI signal of HSA interaction with Aβ40 [4]: marked decline in the maximal BLI signal
- maximal BLI signal of HSA interaction with Aβ42 [5]: marked decline in the maximal BLI signal
- Kd [10]: 5000 to 6000 nM
- direct S100A9–Aβ40 interaction by NMR [11]: direct S100A9–Aβ40 interaction
